Paper PMC5462101 (Future medicinal chemistry, 2015)
Marks after values point to notes of the source that are not given here.

Tests used:
rat model of colitis = assay: Acetic acid-induced colitis in the rat; type: in vivo, Fisher 344 rats; settings: 0.01 mmol/kg intrarectally, 4% acetic acid; for Change in body weight (%): assessed after 48 h; for Score (levels 0–5): colonic damage score, 48 h
Protocol: LOX has also been associated with inflammation and ulcerative colitis. In the present study, a model for colitis involving intracolonic administration of aqueous 4% acetic acid in the rat was used, leading to acute inflammatory reaction. Treated rats presented partial to diffuse petechial bleeding, single erosion and limited ulceration indicating an overall healing effect of the compounds. Substituted pteridines presenting a satisfactory combination of activities 5a, 18a, 18d and 18f were tested using this in vivo model characterized by diffuse exfoliated mucosa as well as multiple and extended erosion and ulcers of the colon (Table 3). No mortality was encountered.
(§1) Fisher 344 rats (150-200 g) were housed in wire-mesh cages, given standard laboratory chow and tap water ad libitum and acclimatized for one week before experiments. Rats were randomly assigned to experimental groups. All in vivo experiments conform to the law for the protection of experimental animals (Republic of Greece) and are registered at the Veterinary Administration of the Republic of Greece in accordance with recognized guidelines on animal experimentation including Directive 2010/63/EU.
Induction of colitis
Rats were anesthetized using pentobarbital (50 mg/kg ip) prior to administration with 1 mL of either vehicle (0.9% w/v saline) or the compound under study at doses 0.01mmol/kg intrarectally via a polyethylene cannula (fitted to a 1 mL syringe) with the tip inserted approximately 8 cm into the anus. Following 30 min pretreatment, 1 ml of 4% acetic acid was introduced into the colon intrarectally and, after exposure for 60 s, the excess fluid was withdrawn. The luminal content was then expelled by instillation of air (10 mL), the ligature was removed and the abdomen was sutured. Both groups of rats were allowed to recover with food and water and the resulting injury was assessed after 48 h. The experiment was conducted using two groups, each containing 3 animals.
Assessment of colonic damage. Rats were weighed, inspected for the presence of diarrhea and sacrificed using diethyl ether. The colons were excised and opened longitudinally, rinsed with cold saline, pinned out and observed under a dissecting microscope. Colonic damage was scored using the system of MacPherson and Pfeiffer: 0 – normal appearance, 1- hyperaemia, 2 – patchy petechial bleeding, 3 – diffuse petechial bleeding, 4 – partial exfoliated mucosa or single erosion or ulceration, 5 – diffuse exfoliated mucosa or multiple erosions or ulceration. The presence or absence of adhesions between the colon and the surrounding tissues was recorded. Scoring of the colonic damage (Table 4) was carried out by an observer unaware of the treatment.

[1] = Competition with DMSO for hydroxyl radicals; settings: compound at 100 µM, Fe3+/ascorbic acid, DMSO 33 mM
Protocol: Competition of the novel pteridine derivatives with dimethyl sulfoxide for hydroxyl radicals was measured. […] The majority of the derivatives were excellent scavengers of hydroxyl radicals with activity higher than the reference compound 6-hydroxy-2,5,7,8-tetramethylchroman-2-carboxylic acid (Trolox).
Competition of pteridine derivatives with DMSO for hydroxyl radicals
Hydroxyl radicals generated by the Fe^3+/ascorbic acid system were detected by determination of formaldehyde produced from the oxidation of DMSO, according to the procedure of Nash. The reaction mixture comprised ethylenediaminetetracetic acid (EDTA) (0.1 mM), Fe^3+ (167 μM), DMSO (33 mM) in phosphate buffer (50 mM, pH 7.4), ascorbic acid (10 mM) and the compound to be tested at 100 µM. After incubation at 37 °C for 30 min the mixture was quenched with aqueous trichloroacetic acid (17% w/v) (Table 2) and the percentage competition of the tested compounds with DMSO for hydroxyl radicals was determined (Table 2).

[2] = Reducing ability in DPPH assay; settings: compound 100 μM
Protocol: Previous work has shown that pterins, their dihydro- and their tetrahydro-derivatives can each be antioxidants or pro-oxidants, depending on the particular conditions. In the present study, several assays were used to assess in vitro antioxidant activity in order to obtain representative information; each method involves the generation of a different radical.
Determination of reducing activity using 1,1-diphenyl-2-picrylhydrazyl radical (DPPH)
To a solution of DPPH in absolute ethanol was added an equal volume of the compound to be tested dissolved in DMSO (20 µL). From a stock solution (10 mM) was prepared a final solution of 100 µM for evaluation of the compounds. The absorbance at 517 nm was recorded after 20 and 60 min at room temperature (Table 2).

soybean lipoxygenase = target: T1, soybean lipoxygenase (Glycine max, UniProt P08170); assay: Inhibition of soybean lipoxygenase; type: biochemical; settings: for inhibition at 100 µM: compound at 100 µM, read-out: Lipoxygenase inhibitory activity (% at 100 µM)
T1 construct: purchased Sigma
T1 sequence (P08170 1-839): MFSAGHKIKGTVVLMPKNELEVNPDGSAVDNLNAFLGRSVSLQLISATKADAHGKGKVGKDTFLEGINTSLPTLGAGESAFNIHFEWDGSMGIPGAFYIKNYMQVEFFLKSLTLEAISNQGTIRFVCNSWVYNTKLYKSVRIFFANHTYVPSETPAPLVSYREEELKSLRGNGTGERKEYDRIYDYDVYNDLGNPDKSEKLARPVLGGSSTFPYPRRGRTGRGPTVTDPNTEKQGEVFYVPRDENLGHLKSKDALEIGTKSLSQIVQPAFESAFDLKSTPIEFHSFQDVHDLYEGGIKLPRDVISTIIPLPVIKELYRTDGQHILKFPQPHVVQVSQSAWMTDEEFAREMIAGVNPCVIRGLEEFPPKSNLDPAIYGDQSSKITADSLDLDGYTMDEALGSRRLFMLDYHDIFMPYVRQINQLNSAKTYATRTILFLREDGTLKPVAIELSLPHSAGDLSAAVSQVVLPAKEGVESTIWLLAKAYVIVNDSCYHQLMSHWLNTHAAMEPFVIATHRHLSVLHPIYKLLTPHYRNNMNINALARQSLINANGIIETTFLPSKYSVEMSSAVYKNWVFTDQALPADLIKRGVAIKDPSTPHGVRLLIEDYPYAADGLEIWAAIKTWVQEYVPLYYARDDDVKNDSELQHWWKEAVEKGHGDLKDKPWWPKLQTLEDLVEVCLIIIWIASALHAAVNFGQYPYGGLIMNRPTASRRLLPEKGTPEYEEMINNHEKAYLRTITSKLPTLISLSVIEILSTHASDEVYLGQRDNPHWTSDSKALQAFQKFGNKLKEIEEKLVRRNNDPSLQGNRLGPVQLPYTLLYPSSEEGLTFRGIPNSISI
Protocol: The substituted pteridines prepared were assayed for inhibition of soybean lipoxygenase (Table 1) (Supplementary Information). Many studies have used readily obtainable soybean lipoxygenase, which is a homologue of mammalian lipoxygenase and well examined. The availability of soybean LOX and its well-characterized crystal structure led to its use in this study.
Determination of soybean lipoxygenase inhibition
A solution in DMSO of each compound to be tested was incubated at room temperature with sodium linoleate (0.1 mM) and a solution of soybean lipoxygenase (EC 1.13.11.12) (1:9 x 10^4 w/v in saline, 0.2 mL, Sigma). The conversion of sodium linoleate to 13-hydroperoxylinoleic acid was monitored by observation at 234 nm and compared with the value of appropriate standard inhibitor (Table 1).
(§2) IC50 determinations. OriginPro 8 was used to determine IC50 values from the sigmoidal line fitted to a graph of log[concentration] against the average percentage inhibition from two independent experiments, with at least 6 different concentrations. The SEM is the calculated standard error in the IC50 value of the fitted line.

[3] = Inhibition of linoleic acid peroxidation (AAPH); settings: linoleic acid peroxidation initiated by AAPH, 37 °C, pH 7.4
Source text: Azo compounds that generate free radicals through spontaneous thermal decomposition are useful for in vitro studies of free radical production. The water-soluble AAPH has been extensively used as a clean and controllable source of thermally produced alkylperoxyl free radicals. […] Evidently, the presence of 6,7-dimethyl groups on the pteridine ring greatly enhances protection against lipid peroxidation; the nature of the alkyl group and ring size on the 2-substituent has some, but much less, effect. […] The role of lipophilicity (as assessed from calculated clogP values; Table 1) is not clear, but substituent bulk plays a significant role.
Inhibition of linoleic acid peroxidation
Production of conjugated diene hydroperoxide by oxidation of linoleic acid in an aqueous dispersion was monitored at 234 nm. 2,2’-Azobis(2-amidinopropane) dihydrochloride (AAPH) was used as a free radical initiator. This assay was used to follow oxidative changes and to determine the inhibition of the peroxidation of sodium linoleate by each tested compound. A dispersion of sodium linoleate (16 mM, 10 μL) was added to the UV cuvette containing phosphate buffer (0.05 M, 0.93 mL) at pH 7.4 and kept in a thermostat at 37 °C. The oxidation reaction was initiated at 37 °C under air by the addition of AAPH solution (40 mM, 50 μL). Oxidation was carried out in the presence of aliquots (10 μL) of the tested compound. In the assay without antioxidant, lipid oxidation was measured in the presence of DMSO (10 μL). The rate of oxidation at 37 °C was monitored by recording the increase in absorption at 234 nm caused by conjugated diene hydroperoxide formation (Table 2).
as §2

[4] = system: carrageenin-induced rat paw edema; assay: Inhibition of carrageenin-induced rat paw edema; type: in vivo, Fisher 344 rats; settings: rat, 0.01 mmol/kg intraperitoneally, 1 h, mean of two experiments
Protocol: The incipient pattern of this edema is characterized by the effects of histamine and 5-hydroxytryptamine. After 1 h, reduction of edema in the rat paw achieved by the pteridine 18f was appreciably greater than the reduction induced by the reference compound indomethacin, a nonselective COX-inhibitor and commonly used nonsteroidal anti-inflammatory drug. Thus, 18f and some related pteridines offer significant protection against reactive oxygen species produced in a model of colitis, probably on account of their properties as antioxidants and radical scavengers.
as §1
Inhibition of carrageenin-induced edema
Edema was induced in the right hind paw of Fisher 344 rats (150-200 g) by intradermal injection of aqueous carrageenin (0.1 mL, 2%). Pregnant females were excluded from the study, but both sexes were used. Each group comprised 6-15 rats which were bred and housed under standard conditions and received a diet of commercial food pellets and water ad libitum during maintenance but were entirely fasted during the experiment period. Each compound (0.01 mmol/kg body weight) was suspended in water to which had been added a few drops of Tween 80 and then the mixture was ground in a mortar prior to being administered intraperitoneally and simultaneously with the carrageenin injection. Rats were euthanized 1 h after injection, and the difference between the weight of the injected and non-injected paws was calculated for each animal. The change in paw weight was compared with that in control animals (treated with water) and the inhibition of the edema was expressed as a percentage (Table 4). […]

SMILES	Change in body weight (%) (rat model of colitis)	Hydroxyl radicals scavenged (%) [1]	RA (%) 100μM 20 min [2]	RA (%) 100μM 60 min [2]	inhibition at 100 µM (soybean lipoxygenase)	IC50 [3]	Score (levels 0–5) (rat model of colitis)	IC50 (soybean lipoxygenase; sodium linoleate 0.1 mM, read-out: Lipoxygenase inhibitory activity (IC50))	Reduction of rat paw edema after 1 h (%) [4]
CN1CCN(c2nc(N)c3nccnc3n2)CC1 [Compound 5a, 2-(4-methylpiperazin-1-yl) pteridin-4-amine]	-1.1%	98%	15%	14%	37.5 ± 0.1%	41 ± 1.1 µM			
CN1CCN(c2nc(NCc3ccccc3)c3nccnc3n2)CC1 [Compound 18a]	-4.2%	91%	2%	7%	31.5 ± 0.2%	22 ± 0.8 µM	One rat exhibited hyperemia (1); the rest presented petechial bleeding (patchy to diffuse) (2–3)		
CN1CCN(c2nc(NCc3cccnc3)c3nccnc3n2)CC1 [Compound 18d]	-7%	95%	10%	11%		32.5 ± 1 µM	One rat exhibited patchy petechial bleeding (2), and another diffuse petechial bleeding (3); the rest presented partial exfoliated mucosa or single erosion or ulcer	0.1 ± 0.01 µM	
COc1ccc2c(c1)c(CC(=O)O)c(C)n2C(=O)c1ccc(Cl)cc1 [Indomethacin, indomethacin, reference compound]									25 ^† %
